The values that follow come from patent publication US5872115A, “2-ureido-benzamide derivatives” (Grelan Pharmaceutical Co. Ltd., priority 1995, dated 1999).

The target of test [1] is T1, THP-1 microsomal ACAT (Homo sapiens, UniProt P35610).
T1 construct: ACAT enzyme fraction was prepared from microsome of human leukemia THP-1 cell; endogenous in cells; host or cells: THP-1 (human leukemia), microsomes
T1 sequence (P35610 1-550): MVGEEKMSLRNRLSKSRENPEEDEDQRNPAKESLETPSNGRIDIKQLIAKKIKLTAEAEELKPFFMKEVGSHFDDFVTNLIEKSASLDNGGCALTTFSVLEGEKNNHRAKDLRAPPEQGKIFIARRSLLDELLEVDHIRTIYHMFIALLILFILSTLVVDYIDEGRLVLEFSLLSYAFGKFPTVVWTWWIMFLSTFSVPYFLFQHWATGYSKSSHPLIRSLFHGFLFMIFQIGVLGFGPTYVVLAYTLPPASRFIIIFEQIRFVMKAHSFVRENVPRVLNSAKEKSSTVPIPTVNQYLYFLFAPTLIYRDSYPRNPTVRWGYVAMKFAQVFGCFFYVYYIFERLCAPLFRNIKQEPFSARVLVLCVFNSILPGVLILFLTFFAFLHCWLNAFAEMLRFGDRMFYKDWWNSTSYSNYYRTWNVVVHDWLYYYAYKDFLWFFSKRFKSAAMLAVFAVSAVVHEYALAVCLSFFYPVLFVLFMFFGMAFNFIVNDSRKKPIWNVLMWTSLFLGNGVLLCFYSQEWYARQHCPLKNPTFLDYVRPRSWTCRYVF
Put plainly: Bioavailability assessment of ACAT inhibitors by their ex vivo activity (serum of dosed mice on THP-1 microsomal ACAT). It is filed as in vivo. The method, then: (5) Bioavailability Assessment of ACAT Inhibitors by Their <<ex vivo>> Activity
[…] Blood samples were collected 0.5, 1, 1.5, 2, 6 hour postdose. Serum were harvested after gentle centrifugation and stored at -20.
The following day, 10 μl serum were preincubated at 37 for 5 minutes with 20 μl of THP-1 microsomal ACAT and then incubated 10 minutes with 20 μl of radiolabeled oleoyl-CoA as described above in method (4). The serum is used instead of the drug solution.
ACAT inhibitory activities of the test compounds were shown as maximum inhibition percentages (Imax).

The target in test [2] is T1, THP-1 microsomal ACAT. Put plainly: In vitro test using THP-1 microsome (ACAT inhibition). It is filed as biochemical.
Protocol: (4) In Vitro Test Using THP-1 Microsome
Then, the reaction was initiated by the addition of 5 nmoles of labeled [^14 C] oleoyl-CoA dissolved in 20 μl of said phosphate buffer solution containing BSA and the reaction was stopped by the addition of 20 μl of 2N HCl after 10 minutes. [^14 C] cholesterol-oleate formed was separated by thin-layer chromatography and the radioactivity was counted with liquid scintillation counter.
ACAT inhibitory activities of the test compounds were shown as IC50 values.
The mark [3] stands for this setting: female mice, 30 mg/kg per os, 1% CMC-Na 0.2% Tween 80, maximum inhibition by serum.
Where [4] appears, read: THP-1 microsome, read-out: IC50 THP1 microsome.
Setting [5] is: tested at 100 mg/kg in a suspension of 0.5% CMC-Na (footnote *).

Where two headings read alike, the source gives them in different places.

Turning to `CCCCNC(=O)Nc1ccc(OC(=O)NCCCC)cc1C(=O)NCC1CCN(C(c2ccccc2)c2ccccc2)CC1` [77 (b), 5-n-butylcarbamyloxy-2-(N'-n-butylureido)-N-[(1-diphenylmethylpiperidin-4-yl)methyl]benzamide], the “Imax Ex vivo” value at THP-1 microsomal ACAT [1] (setting [3]) is recorded as 41.37%. At THP-1 microsomal ACAT [2], the IC50 (usually the concentration at which inhibition is half-maximal) was determined as 50 nM.
In the case of `CCCCNC(=O)Nc1ccc([S+](C)[O-])cc1C(=O)NCC1CCN(C(c2ccccc2)c2ccccc2)CC1` (stereo not drawn) [111 (a)], the “Imax Ex vivo” value on THP-1 microsomal ACAT [1] (setting [3]) worked out at 62.01%. Also, at THP-1 microsomal ACAT [2] (setting [4]), the IC50 worked out at 100 nM.
Consider `CCCCNC(=O)Nc1ccc(N(CC)CC)cc1C(=O)NCC1CCN(C(c2ccccc2)c2ccccc2)CC1` [Example 62, 2-(N'-n-Butylureido)-5-diethylamino-N-[(1-diphenylmethylpiperidin-4-yl)-methyl]-benzamide], for which the “Imax Ex vivo” value at THP-1 microsomal ACAT [1] (setting [3]) worked out at 62.57%. For the same molecule, on THP-1 microsomal ACAT [2] (setting [4]), the IC50 worked out at 30 nM.
The corresponding values for `CCCCNC(=O)Nc1ccc(-n2ccnc2)cc1C(=O)NCC1CCN(C(c2ccccc2)c2ccccc2)CC1` [Example 64, 2-(N'-n-Butylureido)-5-(imidazol-1-yl)-N-[(1-diphenylmethylpiperidin-4-yl)-methyl]-benzamide] are 43.14% and 200 nM.
The corresponding values for `CCCCNC(=O)Nc1ccc(N2CCCC2)cc1C(=O)NCC1CCN(C(c2ccccc2)c2ccccc2)CC1` [Example 65, 2-(N'-n-Butylureido)-5-(pyrrolidin-1-yl)-N-[(1-diphenylmethylpiperidin-4-yl)methyl]-benzamide] are 37.43% and 60 nM.
The corresponding values for `CCCCNC(=O)Nc1ccc(OC)cc1C(=O)NCC1CCN(C(c2ccccc2)c2ccccc2)CC1` [Example 67, 2-(N'-Butylureido)-5-methoxy-N-[(1-diphenylmethylpiperidin-4-yl)methyl]-benzamide] are 51.97% and 50 nM.
Consider `CCCCNC(=O)Nc1ccc(OCC)cc1C(=O)NCC1CCN(C(c2ccccc2)c2ccccc2)CC1` [Example 68, 2-(N'-n-Butylureido)-5-ethoxy-N-[(1-diphenylmethylpiperidin-4-yl)methyl]-benzamide], for which the “Imax Ex vivo” value at THP-1 microsomal ACAT [1] (setting [3]) was determined as 50.51%. Moreover, the IC50 at THP-1 microsomal ACAT [2] (setting [4]) amounted to 30 nM.
The corresponding values for `CCCCNC(=O)Nc1ccc(OCC2CC2)cc1C(=O)NCC1CCN(C(c2ccccc2)c2ccccc2)CC1` [Example 69, 2-(N'-n-Butylureido)-5-cyclopropylmethoxy-N-[(1-diphenylmethylpiperidin-4-yl)methyl]-benzamide] are 40.11% and 30 nM.
The corresponding values for `CCCCNC(=O)Nc1ccc(SC)cc1C(=O)NCC1CCN(C(c2ccccc2)c2ccccc2)CC1` [Example 73] are 38.17% and 20 nM.
On to `CCCCCCCNC(=O)Nc1ccc(-n2ccnc2)cc1C(=O)NCC1CCN(C(c2ccccc2)c2ccccc2)CC1` [Example 79, 2(N'-n-Heptylureido)-5-(imidazol-1-yl)-N-[(1-diphenylmethylpiperidin-4-yl)methyl]-benzamide], for which, at THP-1 microsomal ACAT [1] (setting [5]), the “Imax Ex vivo” value is reported as 63.26%. Besides, at THP-1 microsomal ACAT [2] (setting [4]), the IC50 turned out to be 220 nM.
For the molecule `CCCCCCCCCCNC(=O)Nc1ccc(N(C)C)cc1C(=O)NCC1CCN(C(c2ccccc2)c2ccccc2)CC1` [Example 80, 2-(N'-n-Decylureido)-5-dimethylamino-N-[(1-diphenylmethylpiperidin-4-yl)methyl]-benzamide], at THP-1 microsomal ACAT [2] (setting [4]), the IC50 came to 170 nM.
Take `CCCCCCCNC(=O)Nc1ccc(OC)cc1C(=O)NCC1CCN(C(c2ccccc2)c2ccccc2)CC1` [Example 81, 2-(N'-n-Heptylureido)-5-methoxy-N-[(1-diphenylmethylpiperidin-4-yl)methyl]benzamide]: the “Imax Ex vivo” value at THP-1 microsomal ACAT [1] (setting [5]) is recorded as 74.11%. In addition, the IC50 on THP-1 microsomal ACAT [2] (setting [4]) was determined as 40 nM.
For `CCCCCCCNC(=O)Nc1ccc(N2CCOCC2)cc1C(=O)NCC1CCN(C(c2ccccc2)c2ccccc2)CC1` [Example 82, 2-(N'-n-Heptylureido)-5-(morpholin-4-yl)-N-[(1-diphenylmethylpiperidin-4-yl)methyl]-benzamide], the “Imax Ex vivo” value on THP-1 microsomal ACAT [1] (setting [3]) was 50.15%. The IC50 on THP-1 microsomal ACAT [2] (setting [4]) turned out to be 100 nM.
With `CCCCCCCNC(=O)Nc1ccc(N2CCCCC2)cc1C(=O)NCC1CCN(C(c2ccccc2)c2ccccc2)CC1` [Example 83, 2-(N'-n-Heptylureido)-5-(piperidin-1-yl)-N-[(1-diphenylmethylpiperidin-4-yl)methyl]benzamide], the IC50 on THP-1 microsomal ACAT [2] (setting [4]) was determined as 270 nM.
With `CCCCCCCNC(=O)Nc1ccc(OCC)cc1C(=O)NCC1CCN(C(c2ccccc2)c2ccccc2)CC1` [Example 86, 5-Ethoxy-2-(N'-n-heptylureido)-N-[(1-diphenylmethylpiperidin-4-yl)methyl]-benzamide], the IC50 on THP-1 microsomal ACAT [2] (setting [4]) worked out at 40 nM.
On to `CCCCCCCNC(=O)Nc1ccc(N(CC)CC)cc1C(=O)NCC1CCN(C(c2ccccc2)c2ccccc2)CC1` [Example 87, 5-Diethylamino-2-(N'-n-heptylureido)-N-[(1-diphenylmethylpiperidin-4-yl)-methyl]-benzamide], for which the IC50 on THP-1 microsomal ACAT [2] (setting [4]) is 200 nM.
The same measure, in the same setting: the same measure for `CCCCCCCNC(=O)Nc1ccc(N(C)C)cc1C(=O)NCC1CCCN(C(c2ccccc2)c2ccccc2)C1` (stereo not drawn) [Example 89, 2-(N'-n-Heptylureido)-5-dimethylamino-N-[(1-diphenylmethylpiperidin-3-yl)methyl]-benzamide]: 60 nM.
Still for that read-out and setting: under `CCCCCCCNC(=O)Nc1ccc(N(C)C)cc1C(=O)NCC1CCN(C(c2ccc(Cl)cc2)c2ccc(Cl)cc2)CC1` [Example 92, 2-(N'-n-Heptylureido)-5-dimethylamino-N-[[1-bis(4-chlorophenyl)methylpiperidin-4-yl]-methyl]benzamide] stands 300 nM; under `COCCCNC(=O)Nc1ccc(N(C)C)cc1C(=O)NCC1CCN(C(c2ccccc2)c2ccccc2)CC1` [Example 103, 2-(N'-3-Methoxypropylureido)-5dimethylamino-N-[(1-diphenylmethylpiperidin-4-yl)methyl]benzamide], 90 nM.
The same measure, in the same setting: under `COCCCNC(=O)Nc1ccc(N2CCOCC2)cc1C(=O)NCC1CCN(C(c2ccccc2)c2ccccc2)CC1` [Example 104, 2-(N'-3-Methoxypropylureido)-5-(morpholin-4-yl)-N-[(1-diphenylmethylpiperidin-4-yl)methyl]benzamide] stands 100 nM; under `O=C(NCC1CC1)Nc1ccc(N2CCOCC2)cc1C(=O)NCC1CCN(C(c2ccccc2)c2ccccc2)CC1` [Example 105, 2-(N'-Cyclopropylmethylureido)-5-(morpholin-4-yl)-N-[(1-diphenylmethylpiperidin-4-yl)methyl]benzamide], 100 nM.
Consider `CCCCCCCNC(=O)Nc1ccc(C(C)C)cc1C(=O)NCC1CCN(C(c2ccccc2)c2ccccc2)CC1` [Example 106, 2-(N'-n-Heptylureido)-5-isopropyl-N-[(1-diphenylmethylpiperidin-4-yl)methyl]benzamide], for which, on THP-1 microsomal ACAT [2] (setting [4]), the half-maximal inhibitory concentration (IC50) came to 220 nM.
Same read-out and setting: the same measure for `CCCCNC(=O)Nc1ccc(N)cc1C(=O)NCC1CCN(C(c2ccccc2)c2ccccc2)CC1` [Example 109, 5-Amino-2-(N'-n-butylureido)-N-[(1-diphenylmethylpiperidin-4-yl)methyl]-benzamide]: 400 nM; for `CCCCNC(=O)Nc1ccc(NC)cc1C(=O)NCC1CCN(C(c2ccccc2)c2ccccc2)CC1` [Example 112, 5-Methylamino-2-(N'-n-butylureido)-N-[(1-diphenylmethylpiperidin-4-yl)methyl]benzamide]: 200 nM.
